A word on the pIC50: it is −log10 of the IC50, conventionally taken in molar units. The pEC50 is −log10 of the EC50, conventionally taken in molar units.

Assay [1] deals with SHP-2 full length protein (Homo sapiens (Human), UniProt Q06124). Briefly: SHP-2 biochemical DiFMUP pseudosubstrate-fluorogenic assay. The conditions noted are these: 0.2 nM SHP-2, 1 μM IRS-1 activator peptide, 50 μM DiFMUP; read-out: SHP2 IC50. An outline of the steps:
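In-house recombinant full-length SHP-2 preincubated 90 min at room temperature with compounds (1:3 series, 10,000–0.005 nM), then DiFMUP substrate added at 50 μM final for 30 min more. Fluorescence normalised to DMSO wells (100%) and IC50 derived by curve fitting.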

Another assay has as its system NCI-H358 cells. Briefly: NCI-H358 3D tumor spheroid growth inhibition. It counts as cell-based. The conditions noted are these: Homo sapiens, NCI-H358, 168 h, read-out: H358 EC50. Summed up:
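Cells seeded at 1000/well in ultra-low-attachment plates at 37 °C, 5% CO2 to form spheroids, then incubated a further 7 days with compounds. Viability by 3D CellTiter Glo luminescence; % inhibition versus DMSO wells, with normalized cellular IC50 reported as EC50.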

The mark [2] stands for this setting: 3D spheroids, 7 days, 3D CellTiter Glo, cellular IC50 designated EC50.

pEC50, pIC50: −log10 of the molar value. Read-outs that look alike come from different tables or passages of the source.

Sequence of SHP-2 full length protein (Q06124 whole entry): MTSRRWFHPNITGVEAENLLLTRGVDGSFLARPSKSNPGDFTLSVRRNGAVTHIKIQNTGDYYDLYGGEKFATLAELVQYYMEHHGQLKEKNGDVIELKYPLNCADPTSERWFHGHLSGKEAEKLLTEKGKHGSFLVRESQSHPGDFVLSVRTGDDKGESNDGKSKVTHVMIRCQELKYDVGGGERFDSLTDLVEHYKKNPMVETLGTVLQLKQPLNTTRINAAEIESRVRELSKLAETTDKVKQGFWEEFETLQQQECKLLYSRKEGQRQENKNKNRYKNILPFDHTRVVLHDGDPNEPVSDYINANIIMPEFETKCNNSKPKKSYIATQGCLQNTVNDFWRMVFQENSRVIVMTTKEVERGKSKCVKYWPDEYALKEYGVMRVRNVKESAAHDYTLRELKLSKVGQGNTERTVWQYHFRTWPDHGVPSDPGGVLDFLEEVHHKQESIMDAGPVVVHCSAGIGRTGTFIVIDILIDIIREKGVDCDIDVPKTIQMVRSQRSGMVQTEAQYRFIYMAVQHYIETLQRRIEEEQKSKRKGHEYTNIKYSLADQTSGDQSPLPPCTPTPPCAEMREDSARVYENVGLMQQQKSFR

Turning to `CSc1c(Cl)cccc1Sc1cnc(N2CCC3(CC2)CO[C@@H](C)[C@H]3N)n2ccnc12` [Example 108, (3S,4S)-8-(8-((3-chloro-2-(methylthio)phenyl)thio)imidazo[1,2-c]pyrimidin-5-yl)-3-methyl-2-oxa-8-azaspiro[4.5]decan-4-amine], the pIC50 in assay [1] is 8.48. Besides, the pEC50 in the assay on NCI-H358 cells (setting [2]) is 7.06.
`C[C@@H]1OCC2(CCN(c3ncc(Sc4ccnc5c(-n6cncn6)cccc45)c4nccn34)CC2)[C@@H]1N` [Example 109, (3S,4S)-8-(8-((8-(1H-1,2,4-triazol-1-yl)quinolin-4-yl)thio)imidazo[1,2-c]pyrimidin-5-yl)-3-methyl-2-oxa-8-azaspiro[4.5]decan-4-amine]: the negative-log IC50 (pIC50) in assay [1] is 7.74. In the assay with NCI-H358 cells (setting [2]), the pEC50 is 6.59.
On to `C[C@@H]1OCC2(CCN(c3ncc(Sc4ccnc5c(C(=O)O)cccc45)c4nccn34)CC2)[C@@H]1N` [Example 110, 4-((5-((3S,4S)-4-amino-3-methyl-2-oxa-8-azaspiro[4.5]decan-8-yl)imidazo[1,2-c]pyrimidin-8-yl)thio)quinoline-8-carboxylic acid], for which the pIC50 in assay [1] was 6.72. For the same molecule, the pEC50 in the assay on NCI-H358 cells (setting [2]) is 6.03.
The like results for `C[C@@H]1OCC2(CCN(c3ncc(Sc4cc(N)nc5ccccc45)c4nccn34)CC2)[C@@H]1N` [Example 111, (3S,4S)-8-(8-((2-aminoquinolin-4-yl)thio)imidazo[1,2-c]pyrimidin-5-yl)-3-methyl-2-oxa-8-azaspiro[4.5]decan-4-amine] were, in that order, 8.15 and 6.77.
The like results for `CC(=O)Nc1cccc2c(Sc3cnc(N4CCC5(CC4)CO[C@@H](C)[C@H]5N)n4ccnc34)ccnc12` [Example 112, N-(4-((5-((3S,4S)-4-amino-3-methyl-2-oxa-8-azaspiro[4.5]decan-8-yl)imidazo[1,2-c]pyrimidin-8-yl)thio)quinolin-8-yl)acetamide] were, in that order, 8.00 and 7.25.
Turning to `C[C@@H]1OCC2(CCN(c3ncc(Sc4ccnc5c(C(N)=O)cccc45)c4nccn34)CC2)[C@@H]1N` [Example 113, 4-((5-((3S,4S)-4-amino-3-methyl-2-oxa-8-azaspiro[4.5]decan-8-yl)imidazo[1,2-c]pyrimidin-8-yl)thio)quinoline-8-carboxamide], in assay [1], the pIC50 is 7.96. Further, the pEC50 in the assay with NCI-H358 cells (setting [2]) is 6.47.
Turning to `C[C@@H]1OCC2(CCN(c3ncc(Sc4ccnc5ccccc45)c4nccn34)CC2)[C@@H]1N` [Example 114, (3S,4S)-3-methyl-8-(8-(quinolin-4-ylthio)imidazo[1,2-c]pyrimidin-5-yl)-2-oxa-8-azaspiro[4.5]decan-4-amine], the pIC50 in assay [1] was 8.17. Moreover, in the assay on NCI-H358 cells (setting [2]), the negative logarithm of the EC50 (pEC50) is 7.19.
As for `C[C@@H]1OCC2(CCN(c3ncc(Sc4ccnc5ccc(F)cc45)c4nccn34)CC2)[C@@H]1N` [Example 115, (3S,4S)-8-(8-((6-fluoroquinolin-4-yl)thio)imidazo[1,2-c]pyrimidin-5-yl)-3-methyl-2-oxa-8-azaspiro[4.5]decan-4-amine], in assay [1], the pIC50 is 8.08. The pEC50 in the assay with NCI-H358 cells (setting [2]) is 7.05.
With `C[C@@H]1OCC2(CCN(c3ncc(Sc4ccnc5cc(F)ccc45)c4nccn34)CC2)[C@@H]1N` [Example 116, (3S,4S)-8-(8-((7-fluoroquinolin-4-yl)thio)imidazo[1,2-c]pyrimidin-5-yl)-3-methyl-2-oxa-8-azaspiro[4.5]decan-4-amine], in assay [1], the pIC50 was 8.10. In addition, the pEC50 with NCI-H358 cells (setting [2]) was 7.14.
The like results for `C[C@@H]1OCC2(CCN(c3ncc(Sc4ncnc5ccccc45)c4nccn34)CC2)[C@@H]1N` [Example 117, (3S,4S)-3-methyl-8-(8-(quinazolin-4-ylthio)imidazo[1,2-c]pyrimidin-5-yl)-2-oxa-8-azaspiro[4.5]decan-4-amine] were, in that order, under 5.00 and under 4.90.
The like results for `NCC1CCN(c2ncc(Sc3cccc(Cl)c3Cl)c3nccn23)CC1` [Example 119, (1-(8-((2,3-dichlorophenyl)thio)imidazo[1,2-c]pyrimidin-5-yl)piperidin-4-yl)methanamine] were, in that order, 7.14 and 5.66.
The matching figures for `C[C@@H]1OCC2(CCN(c3ncc(Sc4ccc(C(N)=O)c5ccccc45)c4nccn34)CC2)[C@@H]1N` [Example 120, 4-((5-((3S,4S)-4-amino-3-methyl-2-oxa-8-azaspiro[4.5]decan-8-yl)imidazo[1,2-c]pyrimidin-8-yl)thio)-1-naphthamide]: 7.59 and 6.30.
In the case of `Nc1nccc(Sc2cnc(N3CCC4(CC3)Cc3ccccc3[C@H]4N)n3ccnc23)c1Cl` [Example 121, (S)-1′-(8-((2-amino-3-chloropyridin-4-yl)thio)imidazo[1,2-c]pyrimidin-5-yl)-1,3-dihydrospiro[indene-2,4′-piperidin]-1 amine], the pIC50 in assay [1] is 8.32. In the assay on NCI-H358 cells, the pEC50 was 8.38.
Consider `C[C@@H]1OCC2(CCN(c3ncc(Sc4ccnc5c(F)cccc45)c4nccn34)CC2)[C@@H]1N` [Example 122, (3S,4S)-8-(8-((8-fluoroquinolin-4-yl)thio)imidazo[1,2-c]pyrimidin-5-yl)-3-methyl-2-oxa-8-azaspiro[4.5]decan-4-amine], for which the negative logarithm of the IC50 (pIC50) in assay [1] was 8.04. In addition, the pEC50 in the assay on NCI-H358 cells (setting [2]) was 7.15.
The like results for `COc1ccc2c(Sc3cnc(N4CCC5(CC4)CO[C@@H](C)[C@H]5N)n4ccnc34)ccnc2c1` [Example 123, (3S,4S)-8-(8-((7-methoxyquinolin-4-yl)thio)imidazo[1,2-c]pyrimidin-5-yl)-3-methyl-2-oxa-8-azaspiro[4.5]decan-4-amine] were, in that order, 8.17 and 7.02.
The matching figures for `NC1Cc2ccccc2C12CCN(c1ncc(Sc3cccc(Cl)c3Cl)c3nccn13)CC2` (stereo not shown) [Example 124, 1′-(8-((2,3-dichlorophenyl)thio)imidazo[1,2-c]pyrimidin-5-yl)-2,3-dihydrospiro[indene-1,4′-piperidin]-2-amine]: 7.64 and 6.12.
The like results for `C[C@@H]1OCC2(CCN(c3ncc(Sc4ccnc5cnccc45)c4nccn34)CC2)[C@@H]1N` [Example 126, (3S,4S)-8-(8-((1,7-naphthyridin-4-yl)thio)imidazo[1,2-c]pyrimidin-5-yl)-3-methyl-2-oxa-8-azaspiro[4.5]decan-4-amine] were, in that order, 7.82 and 6.92.
`C[C@@H]1OCC2(CCN(c3ncc(Sc4ccnc5ccc(C#N)cc45)c4nccn34)CC2)[C@@H]1N` [Example 127, 4-((5-((3S,4S)-4-amino-3-methyl-2-oxa-8-azaspiro[4.5]decan-8-yl)imidazo[1,2-c]pyrimidin-8-yl)thio)quinoline-6-carbonitrile]: in assay [1], the pIC50 was 7.52. Besides, in the assay on NCI-H358 cells (setting [2]), the pEC50 is 6.57.
`C[C@@H]1OCC2(CCN(c3ncc(Sc4ccnc5cccnc45)c4nccn34)CC2)[C@@H]1N` [Example 128, (3S,4S)-8-(8-((1,5-naphthyridin-4-yl)thio)imidazo[1,2-c]pyrimidin-5-yl)-3-methyl-2-oxa-8-azaspiro[4.5]decan-4-amine]: in assay [1], the pIC50 is 7.85. Moreover, the pEC50 in the assay with NCI-H358 cells (setting [2]) is 7.23.
The like results for `C[C@@H]1OCC2(CCN(c3ncc(Sc4cccc5ncccc45)c4nccn34)CC2)[C@@H]1N` [Example 129, (3S,4S)-3-methyl-8-(8-(quinolin-5-ylthio)imidazo[1,2-c]pyrimidin-5-yl)-2-oxa-8-azaspiro[4.5]decan-4-amine] were, in that order, 8.00 and 6.82.
The matching figures for `C[C@@H]1OCC2(CCN(c3ncc(Sc4ccnc5[nH]ccc45)c4nccn34)CC2)[C@@H]1N` [Example 130, (3S,4S)-8-(8-((1H-pyrrolo[2,3-b]pyridin-4-yl)thio)imidazo[1,2-c]pyrimidin-5-yl)-3-methyl-2-oxa-8-azaspiro[4.5]decan-4-amine]: 8.24 and 7.24.
The matching figures for `C[C@@H]1OCC2(CCN(c3ncc(Sc4ccnc5[nH]cnc45)c4nccn34)CC2)[C@@H]1N` [Example 131, (3S,4S)-8-(8-((3H-imidazo[4,5-b]pyridin-7-yl)thio)imidazo[1,2-c]pyrimidin-5-yl)-3-methyl-2-oxa-8-azaspiro[4.5]decan-4-amine]: 7.57 and 5.68.
Consider `COc1ccc2nccc(Sc3cnc(N4CCC5(CC4)CO[C@@H](C)[C@H]5N)n4ccnc34)c2c1` [Example 132, (3S,4S)-8-(8-((6-methoxyquinolin-4-yl)thio)imidazo[1,2-c]pyrimidin-5-yl)-3-methyl-2-oxa-8-azaspiro[4.5]decan-4-amine], for which, in assay [1], the pIC50 was 7.66. In addition, the pEC50 in the assay on NCI-H358 cells (setting [2]) is 6.54.
On to `Cc1nc(N2CCC3(CC2)Cc2ccccc2[C@H]3N)n2ccnc2c1-c1cccc(Cl)c1Cl` [Example 135, (S)-1′-(8-(2,3-dichlorophenyl)-7-methylimidazo[1,2-c]pyrimidin-5-yl)-1,3-dihydrospiro[indene-2,4′-piperidin]-1-amine], for which the pIC50 in assay [1] was 8.27. In the assay on NCI-H358 cells (setting [2]), the negative logarithm of the EC50 (pEC50) is 7.85.
The matching figures for `C[C@@H]1OCC2(CCN(c3ncc(Sc4cccc5ccccc45)c4nccn34)CC2)[C@@H]1N` [Example 136, (3S,4S)-3-methyl-8-(8-(naphthalen-1-ylthio)imidazo[1,2-c]pyrimidin-5-yl)-2-oxa-8-azaspiro[4.5]decan-4-amine]: 8.37 and 6.89.
The matching figures for `N[C@@H]1c2ccccc2CC12CCN(c1ncc(Sc3ccnc4sccc34)c3nccn13)CC2` [Example 138, (S)-1′-(8-(thieno[2,3-b]pyridin-4-ylthio)imidazo[1,2-c]pyrimidin-5-yl)-1,3-dihydrospiro[indene-2,4′-piperidin]-1-amine]: 8.66 and 7.96.

Values taken from patent US11179397B2, “Imidazopyrimidine derivatives” (Gilead Sciences, Inc., priority 2018, dated 2021).
